From patent publication US10842838B2, “Method for the use of botanical extracts in the treatment of viral infections” (priority 2012, dated 2020)

System: VACV
Format: cell-based, vaccinia virus
Settings: 100 pfu VACV, 48 HPI

Question: With `C=C(C)[C@@H]1CC[C@]2(C)CC[C@]3(C)[C@H](CC[C@@H]4[C@@]5(C)CC[C@H](O)C(C)(C)[C@@H]5CC[C@]43C)[C@@H]12` [lupeol] as the compound, how does the “antiviral activity, VACV plaques” value read?
Answer: did not show suitable antiviral activity
